Results published in ChEMBL document CHEMBL3046287, “Azoxystrobin resistance of French Mycosphaerella graminicola strains assessed by four in vitro bioassays and by screening of G143A substitution” (Crop Prot, 2010).
Values after ≈ are worked out from the molar mass of the structure shown.

Assays:
Type in all cases: functional, organism-based
[1] = tested on: Zymoseptoria tritici; assay: Antifungal activity against azoxystrobin-resistant Zymoseptoria tritici T0290 carrying cytochrome-b A143 allele assessed as inhibition of spore germination after 2 days at 18 degC by spotting on PDA medium assay; conditions: T0290, 48 h
[2] = tested on: Zymoseptoria tritici; assay: Antifungal activity against azoxystrobin-sensitive Zymoseptoria tritici T0471 carrying cytochrome-b G143 allele assessed as inhibition of spore germination after 2 days at 18 degC by spotting on PDA medium assay; conditions: T0471, 48 h
[3] = tested on: Zymoseptoria tritici; assay: Antifungal activity against azoxystrobin-sensitive Zymoseptoria tritici T0468 carrying cytochrome-b G143 allele assessed as inhibition of spore germination after 2 days at 18 degC by spotting on PDA medium assay; conditions: T0468, 48 h
[4] = tested on: Zymoseptoria tritici; assay: Antifungal activity against azoxystrobin-sensitive Zymoseptoria tritici T0278 carrying cytochrome-b G143 allele assessed as inhibition of spore germination after 2 days at 18 degC by spotting on PDA medium assay; conditions: T0278, 48 h
[5] = tested on: Zymoseptoria tritici; assay: Antifungal activity against azoxystrobin-sensitive Zymoseptoria tritici T083 carrying cytochrome-b G143 allele assessed as fungal colony perpendicular diameter changes after 10 days at 18 degC by spotting on PDA medium assay; conditions: T083, 240 h
[6] = tested on: Zymoseptoria tritici; assay: Antifungal activity against azoxystrobin-resistant Zymoseptoria tritici T049 carrying cytochrome-b A143 allele assessed as fungal growth inhibition after 6 days at 20 degC by microplate without alamar blue assay; conditions: T049, 144 h
[7] = tested on: Zymoseptoria tritici; assay: Antifungal activity against azoxystrobin-resistant Zymoseptoria tritici T0254 carrying cytochrome-b A143 allele assessed as inhibition of spore germination after 2 days at 18 degC by spotting on PDA medium assay; conditions: T0254, 48 h
[8] = tested on: Zymoseptoria tritici; assay: Antifungal activity against azoxystrobin-sensitive Zymoseptoria tritici T0148 carrying cytochrome-b G143 allele assessed as fungal colony perpendicular diameter changes after 10 days at 18 degC by spotting on PDA medium assay; conditions: T0148, 240 h
[9] = tested on: Zymoseptoria tritici; assay: Antifungal activity against azoxystrobin-sensitive Zymoseptoria tritici T0460 carrying cytochrome-b G143 allele assessed as fungal colony perpendicular diameter changes after 10 days at 18 degC by spotting on PDA medium assay; conditions: T0460, 240 h
[10] = tested on: Zymoseptoria tritici; assay: Antifungal activity against azoxystrobin-resistant Zymoseptoria tritici T032 carrying cytochrome-b A143 allele assessed as fungal growth inhibition after 6 days at 20 degC by microplate without alamar blue assay; conditions: T032, 144 h
[11] = tested on: Zymoseptoria tritici; assay: Antifungal activity against azoxystrobin-resistant Zymoseptoria tritici T0345 carrying cytochrome-b A143 allele assessed as fungal growth inhibition after 6 days at 20 degC by microplate without alamar blue assay; conditions: T0345, 144 h
[12] = tested on: Zymoseptoria tritici; assay: Antifungal activity against azoxystrobin-sensitive Zymoseptoria tritici T0365 carrying cytochrome-b G143 allele assessed as inhibition of spore germination after 2 days at 18 degC by spotting on PDA medium assay; conditions: T0365, 48 h
[13] = tested on: Zymoseptoria tritici; assay: Antifungal activity against azoxystrobin-resistant Zymoseptoria tritici T0485 carrying cytochrome-b A143 allele assessed as fungal growth inhibition after 6 days at 20 degC by microplate without alamar blue assay; conditions: T0485, 144 h
[14] = tested on: Zymoseptoria tritici; assay: Antifungal activity against azoxystrobin-resistant Zymoseptoria tritici T0414 carrying cytochrome-b A143 allele assessed as inhibition of spore germination after 2 days at 18 degC by spotting on PDA medium assay; conditions: T0414, 48 h
[15] = tested on: Zymoseptoria tritici; assay: Antifungal activity against azoxystrobin-sensitive Zymoseptoria tritici T0210 carrying cytochrome-b G143 allele assessed as fungal growth inhibition after 6 days at 20 degC by microplate without alamar blue assay; conditions: T0210, 144 h
[16] = tested on: Zymoseptoria tritici; assay: Antifungal activity against azoxystrobin-resistant Zymoseptoria tritici T0293 carrying cytochrome-b A143 allele assessed as fungal growth inhibition after 6 days at 20 degC by microplate without alamar blue assay; conditions: T0293, 144 h
[17] = tested on: Zymoseptoria tritici; assay: Antifungal activity against azoxystrobin-sensitive Zymoseptoria tritici T0403 carrying cytochrome-b G143 allele assessed as inhibition of spore germination after 2 days at 18 degC by spotting on PDA medium assay; conditions: T0403, 48 h
[18] = tested on: Zymoseptoria tritici; assay: Antifungal activity against azoxystrobin-sensitive Zymoseptoria tritici T0473 carrying cytochrome-b G143 allele assessed as inhibition of spore germination after 2 days at 18 degC by spotting on PDA medium assay; conditions: T0473, 48 h
[19] = tested on: Zymoseptoria tritici; assay: Antifungal activity against azoxystrobin-resistant Zymoseptoria tritici T032 carrying cytochrome-b A143 allele assessed as inhibition of spore germination after 2 days at 18 degC by spotting on PDA medium assay; conditions: T032, 48 h
[20] = tested on: Zymoseptoria tritici; assay: Antifungal activity against azoxystrobin-sensitive Zymoseptoria tritici T0384 carrying cytochrome-b G143 allele assessed as fungal colony perpendicular diameter changes after 10 days at 18 degC by spotting on PDA medium assay; conditions: T0384, 240 h
[21] = tested on: Zymoseptoria tritici; assay: Antifungal activity against azoxystrobin-sensitive Zymoseptoria tritici IPO94269 carrying cytochrome-b G143 allele assessed as fungal colony perpendicular diameter changes after 10 days at 18 degC by spotting on PDA medium assay; conditions: IPO94269, 240 h
[22] = tested on: Zymoseptoria tritici; assay: Antifungal activity against azoxystrobin-resistant Zymoseptoria tritici T0251 carrying cytochrome-b A143 allele assessed as inhibition of spore germination after 2 days at 18 degC by spotting on PDA medium assay; conditions: T0251, 48 h
[23] = tested on: Zymoseptoria tritici; assay: Antifungal activity against azoxystrobin-resistant Zymoseptoria tritici T0251 carrying cytochrome-b A143 allele assessed as fungal growth inhibition after 6 days at 20 degC by microplate without alamar blue assay; conditions: T0251, 144 h
[24] = tested on: Zymoseptoria tritici; assay: Antifungal activity against azoxystrobin-sensitive Zymoseptoria tritici T0470 carrying cytochrome-b G143 allele assessed as inhibition of spore germination after 2 days at 18 degC by spotting on PDA medium assay; conditions: T0470, 48 h
[25] = tested on: Zymoseptoria tritici; assay: Antifungal activity against azoxystrobin-sensitive Zymoseptoria tritici T0464 carrying cytochrome-b G143 allele assessed as fungal growth inhibition after 6 days at 20 degC by microplate without alamar blue assay; conditions: T0464, 144 h
[26] = tested on: Zymoseptoria tritici; assay: Antifungal activity against azoxystrobin-resistant Zymoseptoria tritici T049 carrying cytochrome-b A143 allele assessed as inhibition of spore germination after 2 days at 18 degC by spotting on PDA medium assay; conditions: T049, 48 h
[27] = tested on: Zymoseptoria tritici; assay: Antifungal activity against azoxystrobin-resistant Zymoseptoria tritici T049 carrying cytochrome-b A143 allele assessed as fungal colony perpendicular diameter changes after 10 days at 18 degC by spotting on PDA medium assay; conditions: T049, 240 h
[28] = tested on: Zymoseptoria tritici; assay: Antifungal activity against azoxystrobin-resistant Zymoseptoria tritici T0242 carrying cytochrome-b A143 allele assessed as fungal growth inhibition after 6 days at 20 degC by microplate without alamar blue assay; conditions: T0242, 144 h
[29] = tested on: Zymoseptoria tritici; assay: Antifungal activity against azoxystrobin-sensitive Zymoseptoria tritici T0213 carrying cytochrome-b G143 allele assessed as inhibition of spore germination after 2 days at 18 degC by spotting on PDA medium assay; conditions: T0213, 48 h
[30] = tested on: Zymoseptoria tritici; assay: Antifungal activity against azoxystrobin-sensitive Zymoseptoria tritici T0470 carrying cytochrome-b G143 allele assessed as fungal growth inhibition after 6 days at 20 degC by microplate without alamar blue assay; conditions: T0470, 144 h

CO/C=C(/C(=O)OC)c1ccccc1Oc1cc(Oc2ccccc2C#N)ncn1 [AZOXYSTROBIN]
IC50 [1]: 20.1 µg/mL (≈ 49.8 µM)
IC50 [2]: 0.08 µg/mL (≈ 0.198 µM)
IC50 [3]: 0.25 µg/mL (≈ 0.62 µM)
IC50 [4]: 0.94 µg/mL (≈ 2.33 µM)
IC50 [5]: 0.22 µg/mL (≈ 0.545 µM)
IC50 [6]: > 100 µg/mL
IC50 [7]: 7.17 µg/mL (≈ 17.8 µM)
IC50 [8]: 0.06 µg/mL (≈ 0.149 µM)
IC50 [9]: 0.09 µg/mL (≈ 0.223 µM)
IC50 [10]: > 100 µg/mL
IC50 [11]: > 100 µg/mL
IC50 [12]: 0.06 µg/mL (≈ 0.149 µM)
IC50 [13]: > 100 µg/mL
IC50 [14]: 16.2 µg/mL (≈ 40.3 µM)
IC50 [15]: 0.03 µg/mL (≈ 0.0744 µM)
IC50 [16]: > 100 µg/mL
IC50 [17]: < 0.01 µg/mL
IC50 [18]: 0.05 µg/mL (≈ 0.124 µM)
IC50 [19]: 11.6 µg/mL (≈ 28.7 µM)
IC50 [20]: 0.33 µg/mL (≈ 0.818 µM)
IC50 [21]: 0.1 µg/mL (≈ 0.248 µM)
IC50 [22]: 34.1 µg/mL (≈ 84.7 µM)
IC50 [23]: > 100 µg/mL
IC50 [24]: 0.02 µg/mL (≈ 0.0496 µM)
IC50 [25]: < 0.01 µg/mL
IC50 [26]: 11.6 µg/mL (≈ 28.7 µM)
IC50 [27]: 19.4 µg/mL (≈ 48.2 µM)
IC50 [28]: > 100 µg/mL
IC50 [29]: 0.16 µg/mL (≈ 0.397 µM)
IC50 [30]: < 0.01 µg/mL
